The test deals with Prostaglandin E2 receptor EP2 subtype (Homo sapiens, UniProt P43116). The experiment in a line: Binding Assay: Measurement of EP2 receptor binding action was performed in accordance with the method of Abramovitz et al. (Biochimica et Biophysica Acta, 1483, 285 (2000)). A test compound dissolved in dimethyl sulfoxide (final concentration: 1.0 (V/V) %) and [3H]prostaglandin E2 (NET-428, manufactured by PerkinElmer) (final concentration: 10 nM) were added to a buffer solution (10 mM MES-KOH (pH 6.0), 10 mM MgCl2, 1 mM EDTA) in which 10 μg of a membrane fraction of HEK293 cells expressing human EP2 receptor (ES-562-M, manufactured by Euroscreen) was suspended, and then incubated at 30° C. for 60 minutes. The membrane fraction was recovered on glass fiber filter paper (GF/B, manufactured by Whatman) using a cell harvester (M30R, manufactured by Brandel), and after washing with a buffer solution (10 mM MES-KOH (pH 6.0), 10 mM MgCl2), radioactivity was measured with a liquid scintillation analyzer (2000CA, manufactured by Packard). Type of test: cell membranes.
Sequence of Prostaglandin E2 receptor EP2 subtype (P43116 whole entry): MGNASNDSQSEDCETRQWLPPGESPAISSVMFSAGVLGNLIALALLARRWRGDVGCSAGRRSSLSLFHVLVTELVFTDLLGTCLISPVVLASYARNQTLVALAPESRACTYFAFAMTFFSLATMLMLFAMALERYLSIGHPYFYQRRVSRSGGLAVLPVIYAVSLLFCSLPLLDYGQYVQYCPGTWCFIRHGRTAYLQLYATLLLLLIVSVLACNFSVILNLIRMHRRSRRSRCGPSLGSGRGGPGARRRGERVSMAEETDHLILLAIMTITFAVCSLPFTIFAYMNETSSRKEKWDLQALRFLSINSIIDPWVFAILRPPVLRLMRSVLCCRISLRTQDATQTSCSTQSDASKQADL
Regarding `CCOc1ccc(-c2ccc(CN(Cc3cccc(NCC(=O)O)n3)S(=O)(=O)c3ccccn3)cc2)cc1`, the Ki was over 10 nM.
In the case of `O=C(O)CNc1cccc(CN(Cc2ccc(-c3ccc(Cl)cc3)cc2)S(=O)(=O)c2cccnc2)n1` it was over 10 nM.
With `CC#Cc1ccccc1-c1ccc(CN(Cc2cccc(NCC(=O)O)n2)S(=O)(=O)c2ccccn2)cc1` the figure was 0.75 nM.
With `Cc1cccc(-c2ccc(CN(Cc3cccc(NCC(=O)O)n3)S(=O)(=O)c3ccccn3)cc2)c1` the figure was 2.2 nM.
For the compound `CCc1cccc(-c2ccc(CN(Cc3cccc(NCC(=O)O)n3)S(=O)(=O)c3ccccn3)cc2)c1`, the Ki is 1.4 nM.
`CCOc1ccccc1-c1ccc(CN(Cc2cccc(NCC(=O)O)n2)S(=O)(=O)c2ccccn2)cc1`: the Ki was 2.6 nM.
In the case of `CC#Cc1ccc(-c2ccc(CN(Cc3cccc(NCC(=O)O)n3)S(=O)(=O)c3ccccn3)cc2)cc1` it was 6.8 nM; in that of `COc1cccc(-c2ccc(CN(Cc3cccc(NCC(=O)O)n3)S(=O)(=O)c3ccccn3)cc2)c1`, 1.2 nM.
With `CCCc1cccc(-c2ccc(CN(Cc3cccc(NCC(=O)O)n3)S(=O)(=O)c3ccccn3)cc2)c1` the figure was 1.1 nM; with `CC#Cc1cccc(-c2ccc(CN(Cc3cccc(NCC(=O)O)n3)S(=O)(=O)c3cccc(F)c3)cc2)c1`, 1.4 nM; with `Cc1cnc(-c2ccc(CN(Cc3cccc(NCC(=O)O)n3)S(=O)(=O)c3ccccn3)cc2)s1`, over 10 nM.
In the case of `C=CCc1cccc(-c2ccc(CN(Cc3cccc(NCC(=O)O)n3)S(=O)(=O)c3ccccn3)cc2)c1` it was 1.7 nM.

By Ki is commonly meant a measure of affinity in units of concentration, obtained from inhibition or displacement.
